According to patent US20180153870A1, “BIPERIDEN FOR TREATING CANCER” (Universitätsklinikum Hamburg-Eppendorf, priority 2015, published 2018):

Assays:
human Panc-1 tumor cells = assay: Mouse xenograft model with subcutaneous Panc-1 tumor cells; assay type: in vivo, pfp−/−/rag2−/− double knockout mice; conditions: for size of the subcutaneous tumor: daily i.p. treatment, 16 mg/kg mepazine; for size of the subcutaneous tumor / tumor sizes compared to the control groups: 10 mg/kg biperiden; for tumor sizes compared to the control groups: daily i.p., 16 mg/kg mepazine or both
From the text: For the mouse xenograft model pfp−/−/rag2−/− double knockout mice were used. […] Owing to the inactivated rag2 gene, the mouse lacks mature T or B lymphocytes. The mouse model was developed by the Taconic Institute (Quality Laboratory Animals and Services for Research, DK8680 Ry, Taconic Europe, Denmark) by crossing the PFPN12 mouse model with the RAGN12 mouse model. This model was back crossed over 12 generations (N12) with C57BL/6NTac, and the colony was maintained by homozygous pairing. The mouse model was used in the course of the present invention with PDAC cells of the cell line Panc-1, which were administered subcutaneously. 12 days after subcutaneous injection of 10^6 human Panc-1 tumor cells, the mice were treated daily either with 16 mg/kg mepazine i.p. (n=10), 10 mg/kg biperiden (n=10) i.p. or with a combination of both active ingredients, that is with 16 mg/kg mepazine and 10 mg/kg biperiden (n=10) i.p. The control group (n=10) was not treated. The daily treatment was performed under identical, standardized conditions. The same 3-days-cycle was used over the complete period of the study: day one comprised the injection of the medication and the determination of the bodyweight by weighing. Day 2 comprised the injection of the medication and the determination of the subcutaneous tumor growth with a caliper. Day 3 comprised the injection of the medication and neuroscoring. […] After euthanizing, the subcutaneous tumors were removed from the mice. Prior to the surgery, the body of the mouse was disinfected with ethanol. The skin above the tumor was carefully incised, and the tumor was surgically removed from the adjacent tissue. After removal, the tumor was weighed and measured. For evaluation only mice were used which had developed a tumor. […] The volumes of the subcutaneous tumors were measured with a caliper after removal and calculated using the formula length× width^2 as described in [8]. […] The average tumor size in the control group was 729.33 mm^3±186.25 mm^3 compared to 130.43 mm^3±63.96 mm^3 in the group that was treated with mepazine (p=0.002; one-sided Fisher's exact test).

Panc-2 = assay: MTT proliferation assay, Panc-2; assay type: cell-based, human
Method: (§1) The cell lines used for the proliferation assays were cultured in different media. The cell lines Pan-1, Panc-2 and BxPC3, which have been derived from the human ductal pancreatic adenocarcinoma (PDAC), were cultured in Dulbecco's modified Eagle medium (DMEM) (Sigma), that was supplemented with 1% penicillin/streptomycin (Life technologies/GIBCO 15140-122) and 10% fetal bovine serum (Life technologies/GIBCO 100500-064). The cell line L3.6pl was cultured in RPMI 1640 medium (Life technologies/GIBCO 72400-21) that was supplemented with 1% penicillin/streptomycin and 10% fetal bovine serum. A sub-clone of the cell line L3.6pl, that was designated L3.6pl res, was resistant to gemcitabine and was also cultured in RPMI 1640 medium (Life technologies/GIBCO 72400-21) that was supplemented with 1% penicillin/streptomycin, 10% fetal bovine serum and 2 μM gemcitabine (GEMZAR, Lily). The human immortalized, non-malignant cell line of the ductal pancreatic epithelium (HPDE) was cultured in keratinocyte-SFM (Life technologies/GIBCO) that was supplemented with 10% fetal bovine serum, 1% penicillin/streptomycin and 1% epidermal growth factor (EGF).
(§2) The proliferation rates of the cell lines were determined after stimulation with (i) biperiden, (ii) mepazine, and (iii) stimulation with both active ingredients. For this purpose, cells were seeded in plates with 96 wells at 5000 cells per well and incubated overnight at 37° C. and 5% CO2. Next morning, the blanket values were measured at 490 nm in an ELISA reader (FLUOstar Omega, BMG LABTECH) after the addition of 100 μL medium and 20 μL MTT substrate (CellTiter 96 AQueous One Solution Cell Proliferation Assay, Promega). Biperiden was added in increasing concentrations (3.71 μg/ml, 11.1 μg/ml und 29.6 μg/ml) in the form of solutions of biperiden hydrochloride (B5311 SIGMA-Aldrich, USA) and DMSO. […] The ex-tinction was measured every 24 hours during a period of 72 hours.
(§3) The normal distribution of the results was analyzed by Kolgomorov-Smirnov test and Shapiro-Wilk test. Non-parametric variables were analyzed using the Mann-Whitney-U test. […]

[1] = system: esophageal carcinoma cell lines OE19, OE33 und KYSE 140; assay: MTT proliferation assay, esophageal carcinoma cell lines; assay type: cell-based, human; conditions: OE19, OE33, KYSE 140; concentrations as in Example 1
Method: (§4) The proliferation rates of the cell lines were determined after stimulation with (i) biperiden, (ii) mepazine, and (iii) stimulation with both active ingredients. For this purpose, cells were seeded in plates with 96 wells at 5000 cells per well and incubated overnight at 37° C. and 5% CO2. Next morning, the blanket values were measured at 490 nm in an ELISA reader (FLUOstar Omega, BMG LABTECH) after the addition of 100 μL medium and 20 μL MTT substrate (CellTiter 96 AQueous One Solution Cell Proliferation Assay, Promega). Biperiden was added in increasing concentrations (3.71 μg/ml, 11.1 μg/ml und 29.6 μg/ml) in the form of solutions of biperiden hydrochloride (B5311 SIGMA-Aldrich, USA) and DMSO. Mepazine was added in increasing concentrations (15 μM and 25 μM) in the form of solutions of mepazine hydrochloride (MALT1 Inhibitor II, Calbiochem Merck, Millipore Billerica, USA). Combinations of both mepazine and biperiden were added in the following concentrations: 15 μM mepazine+3.71 μg/ml biperiden; 25 μM mepazine+3.71 μg/ml biperiden. The ex-tinction was measured every 24 hours during a period of 72 hours. […]

[2] = system: pancreatic cancer cell lines; assay: MTT proliferation assay, all pancreatic cancer cell lines; assay type: cell-based, human; conditions: in the presence of biperiden, mepazine or a combination
Method: The cell lines used for the proliferation assays were cultured in different media. The cell lines Pan-1, Panc-2 and BxPC3, which have been derived from the human ductal pancreatic adenocarcinoma (PDAC), were cultured in Dulbecco's modified Eagle medium (DMEM) (Sigma), that was supplemented with 1% penicillin/streptomycin (Life technologies/GIBCO 15140-122) and 10% fetal bovine serum (Life technologies/GIBCO 100500-064). The cell line L3.6pl was cultured in RPMI 1640 medium (Life technologies/GIBCO 72400-21) that was supplemented with 1% penicillin/streptomycin and 10% fetal bovine serum. […]
The proliferation rates of the cell lines were determined after stimulation with (i) biperiden, (ii) mepazine, and (iii) stimulation with both active ingredients. […] Next morning, the blanket values were measured at 490 nm in an ELISA reader (FLUOstar Omega, BMG LABTECH) after the addition of 100 μL medium and 20 μL MTT substrate (CellTiter 96 AQueous One Solution Cell Proliferation Assay, Promega). […] The ex-tinction was measured every 24 hours during a period of 72 hours.
as §3

[3] = system: lung carcinoma cell lines A549 und H1299; assay: MTT proliferation assay, lung carcinoma cell lines; assay type: cell-based, human; conditions: concentrations as in Example 1
Method: as §4

HPDE = assay: MTT proliferation assay, HPDE reference cell line; assay type: cell-based, human; conditions: for reaction of proliferation: mepazine, other doses of biperiden or a combination of mepazine and biperiden
Method: as §1, §2, §3

| Structure (SMILES) | size of the subcutaneous tumor (human Panc-1 tumor cells; Panc-1 xenograft) | tumor sizes compared to the control groups (human Panc-1 tumor cells; Panc-1 xenograft) | compatibility of administration (human Panc-1 tumor cells; mice, 10 mg/kg biperiden i.p. daily) | motor activity compared to mice that received mepazine or no medication (human Panc-1 tumor cells; mice, 10 mg/kg biperiden i.p. or 16 mg/kg mepazine and 10 mg/kg biperiden i.p., daily) | reduction of proliferation rate (Panc-2; 29.6 μg/ml biperiden, trend, p=0.077) [%] | proliferation of esophageal carcinoma cell lines [1] | reduction in the proliferation rate [2] | proliferation of lung carcinoma cell lines [3] | proliferation (HPDE; 11.1 μg/ml biperiden) | reaction of proliferation (HPDE) | average tumor size (human Panc-1 tumor cells; Panc-1 xenograft, 16 mg/kg mepazine i.p. daily, ±63.96 mm^3, control 729.33 mm^3±186.25 mm^3, p=0.002) [mm^3] | reduction of proliferation rate (Panc-2; 15 μM mepazine, p=0.008) [%] | reduction of proliferation rate (Panc-2; 25 μM mepazine, p=0.001) [%] |
| --- | --- | --- | --- | --- | --- | --- | --- | --- | --- | --- | --- | --- | --- |
| OC(CCN1CCCCC1)(c1ccccc1)C1CC2C=CC1C2 (stereo not shown) [biperiden] | significantly reduced | visibly smaller | good compatibility | motorically more active | 98.2 | inhibited proliferation of esophageal carcinoma cell lines significantly | massive reduction | inhibited proliferation | reduced slightly | no statistically significant reaction | – | – | – |
| CN1CCCC(CN2c3ccccc3Sc3ccccc32)C1 (stereo not shown) [mepazine] | significantly reduced | visibly smaller | – | – | – | inhibited proliferation of esophageal carcinoma cell lines significantly | massive reduction | inhibited proliferation | – | no statistically significant reaction | 130.43 | 56.1 | 86.9 |
